Series [1] is described as follows: LC-MS analysis of serum isoflavone levels. Conditions: rat, in vivo. On the set-up: species or system female rats. The protocol:
LC-MS analysis of isoflavone levels. Serum isoflavone levels of animals on the diets for four weeks without DMBA treatment were analysed. Blood was collected by orbital bleeding. Serum (400 μL) from each sample was transferred into a 2-mL Eppendorf tube. To each tube, 100 μL of 1 M (pH 5.0) buffer was added followed by vortex mixing, then 40 μL sulphatase (50 mg/mL, Sigma # S-3009) enzyme solution was added. After shaking, the mixture was incubated overnight in a 37° C. water bath (>17 h). The enzymatic hydrolysis was stopped by adding 1 mL ice-cold ethanol/acetonitrile (1:1; v/v), mixed and centrifuged at 4° C. for 15 minutes (10,000 rpm). The supernatant was removed and evaporated to dryness under vacuum. The resulting residue was reconstituted with 150 μL internal standard solution, and three aliquots (15 μL each) were analysed using LC-MS (HP 1100 LC-MS D) over an Xterra RP-18 column (2.1×100 mm, 3.5 μm). The mobile phase was 0.1% (v/v) formic acid followed by acetonitrile (containing 0.1% (v/v) formic acid). Elution was at 200 μL/min. The MSD was operated in negative electrospray ionisation mode with selected ion monitoring of m/z 253 for daidzein and internal standard (chrysin), m/z 269 for genistein, and m/z 241 for equol. Three to four samples from each group were analysed and resulting values are mean± SD.

The subject of a further series is endometrium DNA damage. Put plainly: DNA damage in endometrium by comet assay. The class given is in vivo, female rats. Conditions: diet 28 or 185 days, vs basal diet. The protocol: (§1) Four groups of female rats were fed the basal AIN-76A diet supplemented with: 1) vehicle (control), (2) tamoxifen (0.125 mg/Kg), (3) daidzein (140 mg/Kg), (4) tamoxifen (0.125 mg/Kg) plus daidzein (140 mg/Kg) combination. Rats were sacrificed at either 28 days (short term exposure) or 185 days (long term exposure) after diet initiation, and the endometrium was removed and processed for immunohistochemical and biochemical evaluations.

Series [2] has as its system DMBA-induced rat mammary carcinogenesis. Put plainly: Chemoprevention study: DMBA-induced mammary tumors in rats fed experimental diets. The note with it: for Survival (%): n=20; for Final tumor incidence: n=20, 114 days, * P<0.05, ** P<0.01 vs control (Fisher's exact test); for Latency (P-: P-value vs +control (DMBA) group, unpaired t-test; for Tumor burden (average tumor weight per group): in words, vs control (FIG. 2b). The protocol:
Chemoprevention Study. The diets were formulated by Harlan-Teklad (Madison, Wis. USA) to contain approximately the same amounts of protein, fat, and carbohydrates. The basal diet AIN-76A is free of soy products. The diets were also adjusted to contain similar amounts of methionine, cystine, and choline because these nutrients have been reported to affect mammary carcinogenesis. Daidzein and genistein were added in the basal diets as necessary (Table 1), at 140 and 105 mg/Kg of diet respectively. The selected isoflavone concentrations were based on the amounts present in the well-tolerated 16% (w/w) S PI diet (13). The tam oxifen dose of 0.125 mg/Kg diet was selected based on a previous study (24).
Virgin female Sprague-Dawley rats at 35 days of age were randomized by weight into 5 groups (20 rats per group) and fed basal AIN-76A diet. At 43 days of age, all but the control groups received basal diet supplemented with the appropriate test agents. After an additional week the animals received a single dose (12.5 mg) of DMBA intragastrically in sesame oil.
During the experimental period, the animals were weighed weekly. Palpation of mammary tumors began four weeks after animals received DMBA and continued until termination of the study. The date of appearance and location of every palpable tumor were recorded. Rats were observed daily to assess their general health. Rats were sacrificed by CO2 asphyxiation. Mammary tumors were coded by location, removed from the rat, and weighed. Sections of normal mammary tissue were also taken and either flash frozen in liquid nitrogen or formalin-fixed for paraffin embedding. The experiment and protocol was approved and performed in compliance with relevant laws and institutional guidelines according to the Animal Care Committee (01-142) and Animal Welfare Assurance (A3460.01) at the University of Illinois at Chicago.
Statistical analysis. A significant inhibition of tumor induction as achieved by administration of an inhibitor was defined as a statistically significant decrease (at 5% level) in tumor incidence, multiplicity, or latency period. Statistical comparison of tumor latency between groups was by unpaired t-test. The statistical significance of differences between mean tumor multiplicities was assessed using analysis of variance (ANOVA), and the Armitage'stest for trends in proportions (25). Tumor incidence rates were generated by the life table method, and compared by (one tailed) log-rank analysis (25).

Another series concerns PTEN. Put plainly: PTEN staining of endometrial tissue. Type of series: in vivo, female rats. Conditions: endometrium, diet 28 and 185 days. The protocol: as §1
Series [3] has as its system 8-oxo-deoxyguanosine (8-oxo-dG). Put plainly: LC-UV-MS-MS quantification of 8-oxo-dG (oxidative DNA damage) in normal mammary glands. Type of series: in vivo, female Sprague-Dawley rats. Conditions: in words, vs +control (DMBA); FIG. 3. The protocol:
DNA Hydrolysis. DNA was extracted from normal mammary tissue from six different rats from each group and dissolved in water at ˜2 mg/mL. Aliquots (50-μL) containing ˜100 μg of DNA were mixed with 50 μL of buffer (50 mM ammonium acetate, 0.2 mM ZnCl2, pH 5.3), 10 μL of nuclease P1 (0.4 unit/μL), and 8 μL of alkaline phosphatase (1 unit/μL in 10 mM Tris pH 7.4) and incubated at 37° C. for 30 minutes. […] Bedford, Mass. USA). The solution was centrifuged for 15 minutes at 12,000 rpm and 4° C. just before LC-UV-MS-MS analysis. LC-UV-MS-MS Quantification of Oxidized Nucleosides. The HPLC system consisted of a ThermoFinnigan (San Jose, Calif. USA) Surveyor MS pump coupled with an autosampler, a PDA detector and a YMC (Wilmington, N.C. USA) ODS-AQ C18 column (2.0×250 mm, 5 μm), and guard column (4.0×20 mm). Absorbance detection at 240-290 nm was used for on-line HPLC quantification of dG and dC in the DNA hydrolysate, and a standard curve was prepared using standard solutions of dG and dC in the initial mobile phase. […] For DNA oxidation, the solvent system consisted of water/methanol 90:10 (v/v) at the start point and a linear gradient from 10 to 25% (v/v) methanol over 0-25 min. […] Selected reaction monitoring (SRM) was carried out using a TSQ Quantum triple quadruple mass spectrometer equipped with negative ion (for DNA oxidation) electrospray ionisation. Nitrogen was used as the sheath gas and auxiliary gas at 25 and 10 arbitrary units, respectively. The spray voltage was […]. Collision-induced dissociation (CID) was carried out using argon at 1.0-1.5 mTorr with the collision energy of 10-20 V. The span time per ion channel was 0.5 seconds during SRM. For 8-oxo-deoxyguanosine (8-oxo-dG), m/z 282>192 was selected as SRM (m/z 297>204 for the isotopically labelled internal standard). For 5-MedC, m/z 242>126 was selected as SRM (m/z 245>129 for the isotopically labelled internal standard).

The subject of series [4] is proliferating cell nuclear antigen (PCNA). Put plainly: PCNA staining of endometrial tissue. The class given is in vivo, female rats. The note with it: endometrium gland and stroma, diet 28 and 185 days, vs basal diet. The protocol:
as §1

Series [5] relates to implanted oestrogen-dependent MCF-7 cells. The note with it: athymic mice; Cancer Research 62: 2474-2477; cited from earlier work.
A short description of series [6]: LC-MS analysis of serum isoflavone levels. Type of series: in vivo, female rats. Conditions: diet for four weeks, no DMBA; 3-4 rats per group; ± SEM.
Setting [7] is: female, Sprague-Dawley, 4 weeks.

Entries after “also recorded” stand apart in the source; their conditions may differ.

As to `O=c1c(-c2ccc(O)cc2)coc2cc(O)ccc12` [DAI, 7-hydroxy-3-(4-hydroxyphenyl)-4H-1-benzopyran-4-one], the “Mean serum level of DAI (daidzein)” value in series [1] (setting [7]) was 3.6 ± 0.9 ng/mL. The “Mean serum level of Equol” value is 115.0 ± 20.6 ng/mL in series [1] (setting [7]) and “very high concentrations” in series [1]. Besides, the “Mean serum level of GEN (genistein)” value in series [1] (setting [7]) was 1.2 ± 4.7 ng/mL; in series [1], “very low levels”. Also, the figures for the “DNA damage (comet assay)” value in the series on endometrium DNA damage (listed as Daidzein) and in the series on endometrium DNA damage (listed as diadzein) were “no damaging effect” and “did not affect the level of DNA damage”, respectively. Also, the “Survival (%)” value in series [2] (DMBA-exposed rats on diet) amounted to 95%. In addition, the Final tumor incidence in series [2] (DMBA-exposed rats on diet) is recorded as 85. In series [2], the “Latency (P-” value turned out to be 0.322. Also, the “Tumor burden (average tumor weight per group)” value in series [2] is reported as “reduced tumor burden as effectively as tamoxifen”. The Mean body weight in series [2] (rat, in vivo) is given as 99.2. For the same compound, the PTEN expression result with PTEN (listed as daidzein) is on record as “reduction in PTEN expression”; with PTEN (listed as diadzein), “reduced PTEN expression”. Besides, the “8-oxo-dG levels (ratio 8-oxo-dG/dG) in mammary glands” value (from here on “8-oxo-dG levels (ratio 8-oxo-dG/dG)”) in series [3] is given as “suppressed the levels of 8-oxo-dG equal to those of the group never exposed to DMBA”. The values for the PCNA expression result in series [4] (listed as daidzein) and in series [4] (listed as diadzein) were “increased expression of PCNA” and “increased PCNA”, respectively.
Regarding `O=c1c(-c2ccc(O)cc2)coc2cc(O)cc(O)c12` [GEN, genistein], the “Effect on tamoxifen inhibition of growth of implanted MCF-7 cells” value in series [5] is recorded as “negated the inhibitory effect of tamoxifen”. Further, in series [2] (DMBA-exposed rats on diet), the “Survival (%)” value was 95% and the Final tumor incidence is 85. This compound also gave a Mean body weight in series [2] (DMBA-exposed rats on diet, control = 100.0) of 100.7. Further, in series [2], the “Latency (P-” value was 0.326 and the “Tumor burden (average tumor weight per group)” value is on record as “ineffective”. The “8-oxo-dG levels (ratio 8-oxo-dG/dG)” value in series [3] is “ineffective”. In series [6], the “Mean serum level of DAI (daidzein)” value is given as “very low levels” and the “Mean serum level of Equol” value is on record as “not detectable”.
Consider `CC/C(=C(\c1ccccc1)c1ccc(OCCN(C)C)cc1)c1ccccc1` [TAM, tamoxifen], for which, in series [1] (setting [7]), the “Mean serum level of DAI (daidzein)” value is 0.2 ± 0.0 ng/mL, the “Mean serum level of Equol” value came to 0.0 ng/mL and the “Mean serum level of GEN (genistein)” value turned out to be 0.8 ± 0.1 ng/mL. For the same compound, in series [1], the “Mean serum level of DAI (daidzein)” value is on record as “very low levels”, the “Mean serum level of Equol” value is reported as “not detectable” and the “Mean serum level of GEN (genistein)” value was “very low levels”. Besides, in the series with endometrium DNA damage (listed as Tamoxifen), the “DNA damage (comet assay)” value is reported as “significantly increased DNA damage”. Besides, the “DNA damage (comet assay)” value with endometrium DNA damage (listed as tamoxifen) is “increased DNA damage”. Also, in series [2] (DMBA-exposed rats on diet), the “Survival (%)” value was found to be 90% and the Final tumor incidence is given as 73*. For the same compound, the “Latency (P-” value in series [2] stood at 0.013. Besides, the “Increase of tumor latency over the control value” in series [2] (compared to positive control) was 46%. Further, the Mean body weight in series [2] (rat, in vivo) is 94.4. Further, in the series with PTEN, the PTEN expression result is listed as “reduction in PTEN expression; also recorded: reduced PTEN expression”. In series [3], the “8-oxo-dG levels (ratio 8-oxo-dG/dG)” value is “ineffective”. In addition, the PCNA expression result in series [4] is given as “increased expression of PCNA; also recorded: increased proliferating cell nuclear antigen (PCNA) expression”.

(Values after US20070166414A1, “METHOD FOR ENHANCING TAMOXIFEN EFFICACY AS A CANCER THERAPEUTIC” (priority 2006, published 2007).)
